Key:
Experiment in all cases: relative viability (nuclei count vs DMSO), 5 days (fraction); higher = more cells survive
[1] = tested on: HOP-62
In short: (§1)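 Lung cancer cell lines were seeded in 1536-well plates and dosed by pin tool the next day, with either a single drug or a fixed anchor-drug dose combined with five library-drug doses (not always all listed) spaced in √10 steps. Five days later, one step fixed the cells and stained their nuclei (final 0.05% Triton X-100, 1% formaldehyde, 1 ug/ml Hoechst), and nuclei were counted on 4× images. Relative viability is the nuclei count in treated wells divided by the count in vehicle wells, and each value is the median of duplicate plates.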

[2] = tested on: COR-L23
In short: as §1

[3] = tested on: NCI-H322M
In short: as §1

[4] = tested on: NCI-H1651
In short: as §1

[5] = tested on: NCI-H2347
In short: as §1

[6] = tested on: NCI-H2228
In short: as §1

[7] = tested on: CAL-12T
In short: as §1

[8] = tested on: LC-2-ad
In short: as §1

[9] = tested on: NCI-H647
In short: as §1

[10] = tested on: NCI-H661
In short: as §1

[11] = tested on: NCI-H2085
In short: as §1

[12] = tested on: NCI-H1395
In short: as §1

## O=C(O)CCCCC(CCSCc1ccccc1)SCc1ccccc1 (stereo not drawn) [CPI-613] + CC(=O)c1c(C)c2cnc(Nc3ccc(N4CCNCC4)cn3)nc2n(C2CCCC2)c1=O [Palbociclib] (partner 0.5 µM)
[1]; first compound 50 µM
  relative viability: 0.427
[1]; first compound 158.11 µM
  relative viability: 0.186
[1]; first compound 500 µM
  relative viability: 0.126
[2]; first compound 5 µM
  relative viability: 0.285
[2]; first compound 15.81 µM
  relative viability: 0.321
[2]; first compound 50 µM
  relative viability: 0.324
[2]; first compound 158.11 µM
  relative viability: 0.11
[2]; first compound 500 µM
  relative viability: 0.0343
[3]; first compound 5 µM
  relative viability: 0.466
[3]; first compound 15.81 µM
  relative viability: 0.47
[3]; first compound 50 µM
  relative viability: 0.494
[3]; first compound 158.11 µM
  relative viability: 0.513
[3]; first compound 500 µM
  relative viability: 0.288
[4]; first compound 5 µM
  relative viability: 0.51
[4]; first compound 15.81 µM
  relative viability: 0.466
[4]; first compound 50 µM
  relative viability: 0.487
[4]; first compound 158.11 µM
  relative viability: 0.46
[4]; first compound 500 µM
  relative viability: 0.514
[5]; first compound 5 µM
  relative viability: 0.434
[5]; first compound 15.81 µM
  relative viability: 0.379
[5]; first compound 50 µM
  relative viability: 0.404
[5]; first compound 158.11 µM
  relative viability: 0.392
[5]; first compound 500 µM
  relative viability: 0.22
[6]; first compound 5 µM
  relative viability: 0.693
[6]; first compound 15.81 µM
  relative viability: 0.622
[6]; first compound 50 µM
  relative viability: 0.679
[6]; first compound 158.11 µM
  relative viability: 0.45
[6]; first compound 500 µM
  relative viability: 0.0679
[7]; first compound 5 µM
  relative viability: 0.321
[7]; first compound 15.81 µM
  relative viability: 0.283
[7]; first compound 50 µM
  relative viability: 0.461
[7]; first compound 158.11 µM
  relative viability: 0.0907
[7]; first compound 500 µM
  relative viability: 0.0203
[8]; first compound 5 µM
  relative viability: 0.446
[8]; first compound 15.81 µM
  relative viability: 0.472
[8]; first compound 50 µM
  relative viability: 0.489
[8]; first compound 158.11 µM
  relative viability: 0.24
[8]; first compound 500 µM
  relative viability: 0.168
[9]; first compound 5 µM
  relative viability: 0.341
[9]; first compound 15.81 µM
  relative viability: 0.312
[9]; first compound 50 µM
  relative viability: 0.316
[9]; first compound 158.11 µM
  relative viability: 0.022
[9]; first compound 500 µM
  relative viability: 0.0072
[10]; first compound 5 µM
  relative viability: 0.404
[10]; first compound 15.81 µM
  relative viability: 0.374
[10]; first compound 50 µM
  relative viability: 0.387
[10]; first compound 158.11 µM
  relative viability: 0.24
[10]; first compound 500 µM
  relative viability: 0.132
[11]; first compound 5 µM
  relative viability: 0.447
[11]; first compound 15.81 µM
  relative viability: 0.47
[11]; first compound 50 µM
  relative viability: 0.456
[11]; first compound 158.11 µM
  relative viability: 0.391
[11]; first compound 500 µM
  relative viability: 0.191
[12]; first compound 5 µM
  relative viability: 0.619
[12]; first compound 15.81 µM
  relative viability: 0.641
[12]; first compound 50 µM
  relative viability: 0.601
[12]; first compound 158.11 µM
  relative viability: 0.57
[12]; first compound 500 µM
  relative viability: 0.486

From the supplement of paper PMC10307832
